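1) Cells in 96-well plates. 2) Compound, 48 h, 5 concentrations. 3) Linear interpolation between surrounding doses. 4) Unreached endpoint = highest concentration. GI50: concentration for 50% inhibition of growth. The concentration for full growth arrest is given as TGI.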
Assays:
Test in all cases: DTP human tumour cell line panel, 48 h
[1] = test system: UACC-257 melanoma
[2] = test system: TK-10 renal
[3] = test system: SK-MEL-2 melanoma
[4] = test system: MDA-MB-435
[5] = test system: SN12C renal
[6] = test system: HOP-92 NSCLC
[7] = test system: SF-295 CNS
[8] = test system: CCRF-CEM leukemia

Work on `NC(N)=N/N=C/c1c(-c2ccc(Cl)c([N+](=O)[O-])c2)nc2sc3ccccc3n12` yielded a GI50 [1] of 8.38 µM, a TGI [1] of 18 µM and a GI50 [2] of 0.95 µM. It also gave a TGI [2] of 1.91 µM, a GI50 [3] of 26.8 µM and a TGI [3] of over 50 µM. For the same molecule, the GI50 [4] was 1.1 µM, the TGI [4] was 2.4 µM and the GI50 [5] was 0.529 µM. The TGI [5] was 1.38 µM.

In the case of `NC(=O)c1ncn(C2OC(CO)C(O)C2O)c1N` (configuration not stated), the GI50 [6] is reported as over 100 µM, the TGI [6] is reported as over 100 µM and the GI50 [1] is reported as over 100 µM. For the same molecule, the TGI [1] was over 100 µM, the GI50 [2] was over 100 µM and the TGI [2] was over 100 µM. For the same molecule, the GI50 [3] was over 100 µM, the TGI [3] was over 100 µM and the GI50 [7] was over 100 µM. For the same molecule, the TGI [7] was over 100 µM, the GI50 [4] was over 100 µM and the TGI [4] was over 100 µM. It also gave a GI50 [5] of over 100 µM and a TGI [5] of over 100 µM.

With `C=C1CC/C=C(\C)CC[C@H](C(=C)C)[C@@H](O)/C=C(/CO)CCC1O` (some centres not stated) the GI50 [1] was over 100 µM, the TGI [1] was over 100 µM and the GI50 [2] was 17.4 µM. It also gave a TGI [2] of 68.7 µM, a GI50 [8] of 24 µM and a TGI [8] of 48.6 µM. It also gave a GI50 [3] of over 100 µM, a TGI [3] of over 100 µM and a GI50 [7] of 71.9 µM. The TGI [7] was over 100 µM, the GI50 [4] was 40.5 µM and the TGI [4] was over 100 µM. For the same molecule, the GI50 [5] was over 100 µM and the TGI [5] was over 100 µM.

In the case of `O=C(Nc1ccc(C(F)(F)F)cc1[N+](=O)[O-])c1cccnc1`, the TGI [1] is reported as over 100 µM, the TGI [2] is reported as over 100 µM and the TGI [8] is reported as over 100 µM. It also gave a TGI [3] of over 100 µM, a TGI [7] of 23.9 µM and a TGI [4] of 2.5 µM. The TGI [5] was over 100 µM.

Molecule `O=C(N/N=C/c1ccc(F)cc1)c1ccc(C(F)(F)F)nc1Nc1cccc(C(F)(F)F)c1` has a GI50 [1] of 2.23 µM, a TGI [1] of 6.72 µM and a GI50 [2] of 0.582 µM. The TGI [2] was 3.86 µM, the GI50 [7] was 0.744 µM and the TGI [7] was 2.69 µM. It also gave a GI50 [4] of 2.66 µM, a TGI [4] of 10 µM and a GI50 [5] of 1.63 µM. For the same molecule, the TGI [5] was 7.73 µM.

`COc1ccc(OCC(O)CN2CCN(c3ccc(Cl)cc3)CC2)cc1` (configuration not stated) showed a GI50 [6] of 3.99 µM, a TGI [6] of over 100 µM and a GI50 [1] of over 100 µM. It also gave a TGI [1] of over 100 µM, a GI50 [8] of over 100 µM and a TGI [8] of over 100 µM. The GI50 [3] was over 100 µM, the TGI [3] was over 100 µM and the GI50 [7] was over 100 µM. For the same molecule, the TGI [7] was over 100 µM, the GI50 [4] was over 100 µM and the TGI [4] was over 100 µM. It also gave a GI50 [5] of over 100 µM and a TGI [5] of over 100 µM.

In the case of `COc1ccc(Cc2nc3cc(OC)c(OC)cc3c(=O)[nH]2)cc1`, the GI50 [6] is reported as 21.9 µM, the TGI [6] is reported as over 100 µM and the GI50 [1] is reported as 6.42 µM. For the same molecule, the TGI [1] was 32.1 µM, the GI50 [2] was 11.8 µM and the TGI [2] was 54 µM. It also gave a GI50 [8] of 6.53 µM, a TGI [8] of over 100 µM and a GI50 [7] of 5.21 µM. The TGI [7] was over 26.9 µM, the GI50 [4] was 5.15 µM and the TGI [4] was 57.1 µM. For the same molecule, the GI50 [5] was 11.2 µM and the TGI [5] was over 100 µM.

In the case of `CCSc1ncc(Br)c(Sc2nc(N)nc3nc[nH]c23)n1`, the GI50 [6] is reported as 1.97 µM, the TGI [6] is reported as 43.4 µM and the GI50 [1] is reported as 12.4 µM. It also gave a TGI [1] of over 100 µM, a GI50 [2] of 2.55 µM and a TGI [2] of 25.9 µM. For the same molecule, the GI50 [3] was 4.19 µM, the TGI [3] was over 100 µM and the GI50 [7] was 1.82 µM. It also gave a TGI [7] of over 100 µM, a GI50 [4] of 3.72 µM and a TGI [4] of over 100 µM. It also gave a GI50 [5] of 4.52 µM and a TGI [5] of over 100 µM.

For `Cc1ccc(C2=C(Cl)C(=O)C(c3ccc(C)cc3)=C(Cl)C2=O)cc1`, the TGI [6] was over 100 µM, the TGI [1] was over 100 µM and the TGI [2] was over 100 µM. It also gave a TGI [8] of over 100 µM, a TGI [7] of over 100 µM and a TGI [4] of over 100 µM. For the same molecule, the TGI [5] was over 100 µM.

`N/C(=N\C(N)=N\c1nc2ccccc2s1)c1cnccn1` showed a GI50 [6] of 3.05 µM, a TGI [6] of 16.1 µM and a GI50 [1] of 2.13 µM. The TGI [1] was 5.26 µM, the GI50 [2] was 2.53 µM and the TGI [2] was 7.96 µM. For the same molecule, the GI50 [8] was 3.59 µM, the TGI [8] was over 100 µM and the GI50 [3] was 1.95 µM. The TGI [3] was 4.63 µM, the GI50 [7] was 3.19 µM and the TGI [7] was 22.6 µM. It also gave a GI50 [5] of 4.18 µM and a TGI [5] of over 100 µM.

`N#CC(NC(=O)CCl)=C(Cl)Cl` was tested, and the GI50 [1] was 1.55 µM, the TGI [1] was 3.09 µM and the GI50 [2] was 1.74 µM. It also gave a TGI [2] of 3.4 µM, a GI50 [8] of 0.377 µM and a TGI [8] of 1.79 µM. The GI50 [3] was 2.16 µM, the TGI [3] was 5.24 µM and the GI50 [7] was 2.74 µM. For the same molecule, the TGI [7] was 8.01 µM, the GI50 [4] was 1.94 µM and the TGI [4] was 4.03 µM. It also gave a GI50 [5] of 1.73 µM and a TGI [5] of 3.26 µM.

In the case of `C=C(Cn1c2ccccc2c(=O)c2ccccc21)c1ccc(C(=O)Nc2ccccc2N)cc1`, the GI50 [6] is reported as 5.87 µM, the TGI [6] is reported as over 100 µM and the GI50 [1] is reported as over 100 µM. For the same molecule, the TGI [1] was over 100 µM, the GI50 [2] was over 28.9 µM and the TGI [2] was over 100 µM. It also gave a GI50 [8] of 0.224 µM, a TGI [8] of 19.2 µM and a GI50 [3] of over 100 µM. It also gave a TGI [3] of over 100 µM, a GI50 [7] of over 81.5 µM and a TGI [7] of over 100 µM. For the same molecule, the GI50 [5] was over 100 µM and the TGI [5] was over 100 µM.

`OCC#Cc1ccccc1C#Cc1ccc(C#Cc2ccccc2)cc1` showed a GI50 [1] of 27.6 µM, a TGI [1] of 69.8 µM and a GI50 [2] of 13 µM. It also gave a TGI [2] of 32.9 µM, a GI50 [3] of 51.4 µM and a TGI [3] of over 100 µM. For the same molecule, the GI50 [7] was 37.7 µM, the TGI [7] was over 100 µM and the GI50 [4] was 21 µM. For the same molecule, the TGI [4] was 49.5 µM, the GI50 [5] was 19 µM and the TGI [5] was 35.6 µM.

Work on `COc1cccc(C2C(C#N)=C(N)Oc3cc4c(cc32)OCO4)c1` (configuration not stated) yielded a GI50 [1] of 0.0471 µM, a TGI [1] of 28.1 µM and a GI50 [2] of 0.728 µM. For the same molecule, the TGI [2] was 48.4 µM, the GI50 [8] was 0.0362 µM and the TGI [8] was 19.9 µM. It also gave a GI50 [3] of 0.0301 µM, a TGI [3] of 6.77 µM and a GI50 [7] of 0.035 µM. The TGI [7] was 22 µM, the GI50 [4] was 0.0162 µM and the TGI [4] was 0.0829 µM. For the same molecule, the GI50 [5] was 0.0778 µM and the TGI [5] was over 46.2 µM.

In the case of `COc1cc(N(CCC#N)CCC#N)ccc1/C(N=Nc1ccc(C(=O)O)cc1)=N/NC(=O)c1cc(Br)ccc1O`, the GI50 [6] is reported as over 150 µg/mL, the TGI [6] is reported as over 150 µg/mL and the GI50 [1] is reported as over 150 µg/mL. It also gave a TGI [1] of over 150 µg/mL, a GI50 [8] of 82.4 µg/mL and a TGI [8] of over 150 µg/mL. It also gave a GI50 [3] of over 150 µg/mL, a TGI [3] of over 150 µg/mL and a GI50 [7] of 96.4 µg/mL. For the same molecule, the TGI [7] was over 150 µg/mL, the GI50 [4] was over 150 µg/mL and the TGI [4] was over 150 µg/mL. The GI50 [5] was 102 µg/mL and the TGI [5] was over 150 µg/mL.

`CCCCCCCCCCCCOC1C(C(CC(=O)N2CCN(Cc3ccc4c(c3)OCO4)CC2)NS(=O)(=O)c2cc(Cl)cc(Cl)c2)OC2OC(C)(C)OC21` (configuration not stated) gave a GI50 [6] of 15.1 µM, a TGI [6] of over 62.8 µM and a GI50 [1] of 59.1 µM. For the same molecule, the TGI [1] was over 100 µM, the GI50 [2] was 58 µM and the TGI [2] was over 100 µM. The GI50 [3] was 47.9 µM, the TGI [3] was over 100 µM and the GI50 [7] was 26.3 µM. It also gave a TGI [7] of over 100 µM, a GI50 [4] of 48 µM and a TGI [4] of over 100 µM. For the same molecule, the GI50 [5] was 15.6 µM and the TGI [5] was 43.2 µM.

In the case of `O=C(/C=C(\[O-])c1ccccc1)CCCCCCC(=O)/C=C(\[O-])c1ccccc1.O=C(/C=C(\[O-])c1ccccc1)CCCCCCC(=O)/C=C(\[O-])c1ccccc1.O=C(/C=C(\[O-])c1ccccc1)CCCCCCC(=O)/C=C(\[O-])c1ccccc1.[Nd+3].[Nd+3]`, the GI50 [6] is reported as 43.8 µM, the TGI [6] is reported as over 50 µM and the GI50 [1] is reported as over 50 µM. For the same molecule, the TGI [1] was over 50 µM, the GI50 [2] was over 50 µM and the TGI [2] was over 50 µM. The GI50 [3] was over 50 µM, the TGI [3] was over 50 µM and the GI50 [7] was 40.2 µM. The TGI [7] was over 50 µM, the GI50 [5] was over 50 µM and the TGI [5] was over 50 µM.

Source: PubChem BioAssay (NCI)
